Experimental data from patent publication US20040204577A1, “Novel peptide-forming enzyme gene” (Ajinomoto Co., Inc., priority 2003, published 2004).
Where a SMILES comes first, the peptide text is derived from it. [ ]: non-standard residue; d: D form. The star is where a group is joined. 2Nal = N[C@@H](Cc1ccc2ccccc2c1)C(=O)O; Cha = N[C@@H](CC1CCCCC1)C(=O)O; Tle = CC(C)(C)[C@H](N)C(=O)O; Boc = CC(C)(C)OC(=O)*; tBu = CC(C)(C)*

How the values were obtained:
Type in all cases: biochemical, Empedobacter brevis
[1] = system: peptide-forming enzyme (Mono S fraction enzyme); test: Production of L-alanyl-L-glutamine from L-alanine methyl ester and L-glutamine with enzyme fraction; conditions: 100 mM L-alanine methyl ester hydrochloride, 200 mM L-glutamine, 10 mM EDTA, pH 9.0, 18° C.; FIG. 3
Protocol: On the other hand, there was hardly any production of L-Ala-L-Gln observed in an enzyme-non-added lot, and the […] was only about 0.07 mM after reacting for 120 minutes.

[2] = system: peptide-forming enzyme (Mono S fraction enzyme); test: Enzyme substrate specificity (1)-(10), (13), (14): peptide production; conditions: L-amino acid ester 100 mM, peptide (amine component) 150 mM, pH 9.0, 25° C., 3 hours
In short: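 Mono S enzyme fraction in 100 mM borate buffer (pH 9.0) with 10 mM EDTA and 100 mM carboxy component (amino acid methyl esters or amides); amine components (L-glutamine, amino acids, amino acid amides or methylamine) at 150 mM, or 200 mM L-glutamine with varied esters. Reactions ran at 25° C for 2–3 hours; 0.1% Tween-80 added for Trp/Tyr-OMe.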

[3] = system: peptide-forming enzyme (Mono S fraction enzyme); test: as above; set-up: key: +: those peptides for which production was confirmed but which were unable to be quantified due to the absence of a standard; a trace amount; conditions: 0.1 unit enzyme, 25° C.
Protocol: (§1) Ester specificity was examined in the case of using L-amino acid ester for the carboxy component. 2 μl of the same enzyme fraction as used in Example 5 was added to 100 μl of 100 mM borate buffer (pH 9.0) containing the carboxy components indicated in Table 4 at 100 mM, 200 mM L-glutamine and 10 mM EDTA, and allowed to react at 25° C. for 2 hours. HCl represents hydrochloride in Table 4.
(§2) Peptide production was examined in the case of using L-alanine methyl ester for the carboxy component and using various L-amino acids for the amine component.
(§3) Peptide production was examined in the case of using various types of L-amino acid methyl esters for the carboxy component and using L-glutamine for the amine component. 2 μl of the same enzyme fraction as used in Example 5 was added to 100 μl of 100 mM borate buffer (pH 9.0) containing the L-amino acid methyl ester hydrochloride salts (AA-OMe.HCl) shown in Table 6 at 100 mM, 150 mM L-glutamine and 10 mM EDTA, and allowed to react at 25° C. for 3 hours. […] Furthermore, Tween-80 was added to the reaction system to a final concentration of 0.1% in the case of using L-Trp-OMe and L-Tyr-OMe.
(§4) Peptide production was examined in the case of using various L-amino acid methyl esters for the carboxy component and various L-amino acids for the amine component. 2 μl of the same enzyme fraction as used in Example 5 was added to 100 μl of 100 mM borate buffer (pH 9.0) containing the L-amino acid methyl ester hydrochloride salts (AA-OMe.HCl) shown in Table 7 at 100 mM, the L-amino acids shown in Table 7 at 150 mM and 10 mM EDTA, and allowed to react at 25° C. for 3 hours. The “tr” indicates a trace amount. Furthermore, Tween-80 was added to the reaction system to a final concentration of 0.1% in the case of using L-Trp-OMe.
Peptide production was examined in the case of using the L or D forms of various amino acid methyl esters for the carboxy component, and the L or D forms of various amino acids for the amine component. 2 μl of the same enzyme fraction as used in Example 5 was added to 100 μl of 100 mM borate buffer (pH 9.0) containing the various amino acid methyl ester hydrochloride salts (AA-OMe HCl) shown in Table 8 at 100 mM, the various amino acids shown in Table 8 at 150 mM and 10 mM EDTA, and allowed to react at 25° C. for 3 hours. The “tr” indicates a trace amount.
Peptide production was examined using various L-amino acid amides for the carboxy component, and various L-amino acids for the amine component. 2 μl of the same enzyme fraction as that used in Example 5 was added to 100 μl of 100 mM borate buffer (pH 9.0) containing the L-amino acid amide hydrochloride salt (M-NH2.HCl) shown in Table 9 at 100 mM, the L-amino acids shown in Table 9 at 150 mM and 10 mM EDTA, and allowed to react at 25° C. for 3 hours.
Peptide production was examined in the case of using various L-alanine methyl esters for the carboxy component and C-protected L-amino acids for the amine component. 2 μl of the same enzyme fraction as used in Example 5 was added to 100 μl of 100 mM borate buffer (pH 9.0) containing the L-alanine methyl ester hydrochloride hydrochloride salt (Ala-OMe.HCl) shown in Table 10 at 100 mM, the L-amino acid amide hydrochloride salts shown in Table 10 at 150 mM and 10 mM EDTA, and allowed to react at 25° C. for 3 hours.
Peptide production was examined in the case of using various amino acid methyl esters for the carboxy component and methylamine for the amine component. 2 μl of the same enzyme fraction as used in Example 5 was added to 100 μl of 100 mM borate buffer (pH 9.0) containing the amino acid methyl ester hydrochloride salt (M-OMe.HCl) shown in Table 11 at 100 mM, the methylamine shown in Table 11 at 150 mM and 10 mM EDTA, and allowed to react at 25° C. for 3 hours.
Peptide production was examined in the case of using […] for the carboxy component or β-amino acid for the amine component.

[4] = system: peptide-forming enzyme (Mono S fraction enzyme); test: as above; set-up: key: +: those for which production was confirmed but which were unable to be quantified due to the absence of a standard; a trace amount; conditions: 0.1 unit enzyme, 25° C.
Protocol: as §1, §2, §3, §4
Peptide production was examined in the case of using the L or D forms of various amino acid methyl esters for the carboxy component, and the L or D forms of various amino acids for the amine component. […]

[5] = system: peptide-forming enzyme (Mono S fraction enzyme); test: Enzyme inhibitors: effects on the production of L-alanyl-L-glutamine; conditions: for Relative activity of L-Ala-L-Gln production: inhibitor at 10 mM, borate buffer pH 9.0, 25° C., 5 minutes, 100 = absence of enzyme inhibitor
[6] = carboxy component 40 mM, amine component 40 mM, reaction time 3 hr
[7] = carboxy component 100 mM, amine component 150 mM, reaction time 3 hr
[8] = carboxy component 100 mM, amine component 150 mM, reaction time 2 hr

## L-Ala-L-Ala-L-Gln
[1]
  Peptide formed, enzyme-added lot: 1.3 mM
[2]
  Produced peptide: 15.2 mM

## NC(=O)CC[C@H](NC(=O)[C@@H](N)Cc1ccc2ccccc2c1)C(=O)O [H-2-Nal-H-Gln-OH] (H-[2Nal]-Gln-OH)
[3]; [6]
  Produced peptide: tr

## NC(=O)CC[C@H](NC(=O)[C@@H](N)Cc1ccc(F)cc1)C(=O)O [H-p-F-Phe-H-Gln-OH]
[3]; [7]
  Produced peptide: tr

## C[C@H](N)C(=O)N[C@@H](Cc1ccc2ccccc2c1)C(=O)O [H-Ala-2-Nal-OH] (H-Ala-[2Nal]-OH)
[4]; carboxy component 20 mM, amine component 20 mM, reaction time 3 hr
  Produced peptide: +

## CN[C@@H](C)C(=O)N[C@@H](Cc1ccccc1)C(=O)O [H-N-Me-Ala-Phe-OH]
[3]; [7]
  Produced peptide: tr

## CC(C)(C)[C@H](N)C(=O)N[C@@H](CCC(N)=O)C(=O)O [H-t-Leu-H-Gln-OH] (H-[Tle]-Gln-OH)
[3]; [7]
  Produced peptide: tr

## O=S(=O)(F)Cc1ccccc1 [Phenylmethylsulfonyl fluoride, phenylmethylsulfonyl fluoride]
[5]
  Relative activity of L-Ala-L-Gln production: 115%
[5]; serine enzyme inhibitors at 10 mM
  Inhibition of the enzyme (in words): not inhibited

## CCN1C(=O)C=CC1=O [N-Ethyl maleimide]
[5]
  Relative activity of L-Ala-L-Gln production: 110%

## N[C@@H](CC1CCCCC1)C(=O)N[C@@H](Cc1ccccc1)C(=O)O [H-CHA-Phe-OH] (H-[Cha]-Phe-OH)
[4]; [6]
  Produced peptide: +

## NC(=O)CC[C@H](NC(=O)[C@@H](N)Cc1ccc(Cl)cc1)C(=O)O [H-Cl-F-Phe-H-Gln-OH]
[3]; carboxy component 25 mM, amine component 50 mM, reaction time 3 hr
  Produced peptide: tr

## CC(C)(C)OC[C@H](N)C(=O)N[C@@H](CCC(N)=O)C(=O)O [H-Ser(tBu)-Gln-OH] (H-Ser(tBu)-Gln-OH)
[3]; [8]
  Produced peptide: tr

## CC(C)(C)OC(=O)NCCCC[C@H](N)C(=O)N[C@@H](CCC(N)=O)C(=O)O [H-Lys(Boc)-Gln-OH] (H-Lys(Boc)-Gln-OH)
[4]; [8]
  Produced peptide: +

## c1cnc2c(c1)ccc1cccnc12 [o-Phenanthroline, o-phenanthroline]
[5]
  Relative activity of L-Ala-L-Gln production: 96%

## O=C(O)CN(CCN(CC(=O)O)CC(=O)O)CC(=O)O [EDTA, ethylene diamine tetraacetic acid]
[5]
  Relative activity of L-Ala-L-Gln production: 96%
